Tested on: glycogen synthase
Experiment: Glycogen Synthase (GS) Assay
Assay type: biochemical
Settings: for EC50: compound concentration needed to give 50% maximum activation; for GS SC200: compound concentration needed to stimulate 200% of the enzyme activity
Experimental: Twelve μl per well of substrate solution containing glycogen (4.32 mg/ml), 2.67 mM UDP-glucose, 21.6 mM phospho(enol)pyruvate and 2.7 mM NADH in 30 mM glycylglycine, pH 7.3 buffer was added into a polystyrene 384-well assay plate (BD Biosciences).
Compound solutions (8 μl/well) at various concentrations (0-300 μM) were added to the assay plate (columns 5-24). Compound solution contains 30 mM glycylglycine, pH 7.3, 40 mM KCl, 20 mM MgCl2, 9.2% DMSO, with (columns 15-24) or without (columns 5-14) 20 mM glucose 6-phosphate.
Enzyme solution (12 μl/well) containing glycogen synthase (16.88 μg/ml), pyruvate kinase (0.27 mg/ml), lactate dehydrogenase (0.27 mg/ml) in 50 mM Tris-HCl, pH 8.0, 27 mM DTT and bovine serum albumin (BSA, 0.2 mg/ml) was added to the assay plate (columns 3-24). As a blank control, enzyme solution without glycogen synthase was added into the top half wells of columns 1-2. To the bottom half wells of columns 1-2 were added a known activator, glucose 6-phosphate (at final concentration 5 mM) in addition to the enzyme solution. The reaction mixture was incubated at room temperature. The assay plate was then read for absorbance at 340 nm on an Envision reader every 3 minutes up to a total of 15 minutes.
The enzyme activity (with or without compound) was calculated by the reaction rate and represented by the optical density change (μOD) per minute. Percent stimulation of glycogen synthase activity by a compound at various concentrations was calculated by the following formula: […]
wherein Rs is the reaction rate of the enzyme in the presence of compound and Rt is the reaction rate of the enzyme in the absence of compound.
SC200 is defined as the compound concentration that is needed to stimulate 200% of the enzyme activity. EC50 is defined as the compound concentration that is needed to give 50% maximum activation.

| Structure (SMILES) | EC50 [µM] | GS SC200 [µM] |
| --- | --- | --- |
| COc1cc(F)c(F)cc1-c1ccc(OCc2ccc3onc(N)c3c2)cc1 [Example 1, 5-(4′,5′-Difluoro-2′-methoxy-biphenyl-4-yloxymethyl)-benzo[d]isoxazol-3-ylamine] | 1.49 | 0.688 |
| CNc1noc2ccc(COc3ccc(-c4cc(F)c(F)cc4OC)cc3)cc12 [Example 2] | 1.97 | 0.514 |
| COc1cc(F)c(F)cc1-c1ccc(OCc2ccc3onc(OCC(=O)O)c3c2)cc1 [Example 5, [5-(4′,5′-Difluoro-2′-methoxy-biphenyl-4-yloxymethyl)-benzo[d]isoxazol-3-yloxy]-acetic acid] | 1.35 | 0.492 |
| COc1cc(F)c(F)cc1-c1ccc(OCc2ccc3onc(OC(C)(C)C(=O)O)c3c2)cc1 [Example 6, 2-[5-(4′,5′-Difluoro-2′-methoxy-biphenyl-4-yloxymethyl)-benzo[d]isoxazol-3-yloxy]-2-methyl-propionic acid] | 0.777 | 0.348 |
| COc1cc(F)c(F)cc1-c1ccc(OCc2ccc3onc(OC(C(=O)O)c4ccccc4)c3c2)cc1 (stereo not shown) [Example 8, [5-(4′,5′-Difluoro-2′-methoxy-biphenyl-4-yloxymethyl)-benzo[d]isoxazol-3-yloxy]-phenyl-acetic acid] | 1.76 | 0.723 |
| COc1cc(F)c(F)cc1-c1ccc(OCc2ccc3onc(OCCC(=O)O)c3c2)cc1 [Example 9, 3-[5-(4′,5′-Difluoro-2′-methoxy-biphenyl-4-yloxymethyl)-benzo[d]isoxazol-3-yloxy]-propionic acid] | 1.7 | 0.61 |
| Oc1noc2c(COc3ccc(-c4cc(F)c(F)cc4F)cc3)cccc12 [Example 10, 7-(2′,4′,5′-Trifluoro-biphenyl-4-yl-oxymethyl)-benzo[d]isoxazol-3-ol] | 0.836 | 0.148 |
| Cc1cc(F)c(F)cc1-c1ccc(OCc2cccc3c(O)noc23)cc1 [Example 13, 7-(4′,5′-Difluoro-2′-methyl-biphenyl-4-yloxymethyl)-benzo[d]isoxazol-3-ol] | 0.792 | 0.523 |
| COc1cc(F)c(F)cc1-c1ccc(OCc2ccc3onc(N(CC(=O)O)CC4CC4)c3c2)cc1 [Example 17] | 1.16 | 0.438 |
| COc1cc(F)c(F)cc1-c1ccc(OCc2ccc3onc(N(CC(=O)O)CC4CCOCC4)c3c2)cc1 [Example 18, [[5-(4′,5′-Difluoro-2′-methoxy-biphenyl-4-yloxymethyl)-benzo[d]isoxazol-3-yl]-(tetrahydro-pyran-4-ylmethyl)-amino]-acetic acid] | 0.713 | 0.249 |
| COc1cc(F)c(F)cc1-c1ccc(OCc2cccc3c(N(C)CC(=O)O)noc23)cc1 [Example 19, {[7-(4′,5′-Difluoro-2′-methoxy-biphenyl-4-yloxymethyl)-benzo[d]isoxazol-3-yl]-methyl-amino}-acetic acid] | 4.22 | 1.57 |

Second part, led by results:

| EC50 [µM] | Structure (SMILES) | GS SC200 [µM] |
| --- | --- | --- |
| 0.302 | COc1cc(F)c(F)cc1-c1ccc(OCc2ccc3onc(N(C)CC(=O)O)c3c2)cc1 [Example 3] | 0.024 |
| 0.172 | COc1cc(F)c(F)cc1-c1ccc(OCc2ccc3onc(O)c3c2)cc1 [Example 4, 5-(4′,5′-Difluoro-2′-methoxy-biphenyl-4-yloxymethyl)-benzo[d]isoxazol-3-ol] | 0.032 |
| 0.662 | COc1cc(F)c(F)cc1-c1ccc(OCc2ccc3onc(OC(C)C(=O)O)c3c2)cc1 (stereo not shown) [Example 7, 2-[5-(4′,5′-Difluoro-2′-methoxy-biphenyl-4-yloxymethyl)-benzo[d]isoxazol-3-yloxy]-propionic acid] | 0.218 |
| 0.158 | COc1cc(F)c(F)cc1-c1ccc(OCc2cccc3c(O)noc23)cc1 [Example 11, 7-(4′,5′-Difluoro-2′-methoxy-biphenyl-4-yloxymethyl)-benzo[d] isoxazol-3-ol] | 0.014 |
| 0.702 | Oc1noc2c(COc3ccc(-c4cc(F)c(F)cc4Cl)cc3)cccc12 [Example 12, 7-(2′-Chloro-4′,5′-difluoro-biphenyl-4-yloxymethyl)-benzo[d]isoxazol-3-ol] | 0.406 |
| 0.365 | COCCN(CC(=O)O)c1noc2ccc(COc3ccc(-c4cc(F)c(F)cc4OC)cc3)cc12 [Example 14, [[5-(4′,5′-Difluoro-2′-methoxy-biphenyl-4-yloxymethyl)-benzo[d]isoxazol-3-yl]-(2-methoxy-ethyl)-amino]-acetic acid] | 0.098 |
| 0.514 | COCCCN(CC(=O)O)c1noc2ccc(COc3ccc(-c4cc(F)c(F)cc4OC)cc3)cc12 [Example 15, [[5-(4′,5′-Difluoro-2′-methoxy-biphenyl-4-yloxymethyl)-benzo[d]isoxazol-3-yl]-(3-methoxy-propyl)-amino]-acetic acid] | 0.169 |
| 0.631 | CCN(CC(=O)O)c1noc2ccc(COc3ccc(-c4cc(F)c(F)cc4OC)cc3)cc12 [Example 16, {[5-(4′,5′-Difluoro-2′-methoxy-biphenyl-4-yloxymethyl)-benzo[d]isoxazol-3-yl]-ethyl-amino}-acetic acid] | 2.18 |
| 0.422 | Oc1noc2ccc(COc3ccc(-c4cc(F)c(F)cc4F)cc3)cc12 [Example 20, 5-(2′,4′,5′-Trifluoro-biphenyl-4-yloxymethyl)-benzo[d]isoxazol-3-ol] | 0.247 |

From patent publication US20110112158A1, “BENZISOXAZOLE ANALOGS AS GLYCOGEN SYNTHASE ACTIVATORS” (priority 2009, published 2011)
